Consider four compounds from US20070219191A1, “3-Pyridinium Methyl Cephem Compound” (priority 2004, published 2007).

Converted amounts (≈) assume the structure as drawn.

Assay in all cases: Antibacterial activity, MIC by agar plate dilution method
What all share (format): cell-based

For one assay, the system named is P. aeruginosa SR24. The conditions noted are these: Pseudomonas aeruginosa, 1000 cfu/spot. As to the method: (§1) Antibacterial activity of Compound (I) was examined.
(§2) Minimal inhibitory concentration (MIC: μg/ml) was determined by an agar plate dilution method using a sensitive disc medium as a test medium with an innoculation amount of 1000 cfu/spot in conformance with the standard method established by Japanese Society of Chemotherapy.

For the next assay, the system named is H. influenzae ATCC49766. Particulars: Haemophilus influenzae, 1000 cfu/spot. As to the method:
as §1, §2

A further assay deals with E. coli NIHJ JC-2. The conditions noted are these: Escherichia coli, NIHJJC2, 1000 cfu/spot. As to the method: as §1, §2
In a further assay the test system is S. pneumoniae Type I. The conditions noted are these: Streptococcus pneumoniae, 1000 cfu/spot. As to the method:
as §1, §2

Turning to `CC(C)(O/N=C(\C(=O)NC1C(=O)N2C(C(=O)[O-])=C(C[n+]3ccc(NC4CCNC4)cc3)CSC12)c1nsc(N)n1)C(=O)O` (stereo not shown) [Example 5], the MIC was determined as 0.5 µg/mL (≈ 0.792 µM) against P. aeruginosa SR24, 0.063 µg/mL (≈ 0.0997 µM) against H. influenzae ATCC49766, 0.125 µg/mL (≈ 0.198 µM) in the assay on E. coli NIHJ JC-2 and 0.125 µg/mL (≈ 0.198 µM) with S. pneumoniae Type I.

As to `Cc1c(N)[nH]c2ccc[n+](CC3=C(C(=O)[O-])N4C(=O)C(NC(=O)/C(=N\OC(C)(C)C(=O)O)c5nsc(N)n5)C4SC3)c12` (stereo not shown) [Example 10], the MIC against P. aeruginosa SR24 came out at 0.5 µg/mL (≈ 0.812 µM); in the assay with H. influenzae ATCC49766, 0.016 µg/mL (≈ 0.026 µM); in the assay with E. coli NIHJ JC-2, 0.25 µg/mL (≈ 0.406 µM); against S. pneumoniae Type I it was 0.125 µg/mL (≈ 0.203 µM).

Turning to `CC(C)(O/N=C(\C(=O)NC1C(=O)N2C(C(=O)[O-])=C(C[n+]3cccc4c3nc(N)n4C3CCNCC3)CSC12)c1nsc(N)n1)C(=O)O` (stereo not shown) [Example 12], the MIC came to 0.25 µg/mL (≈ 0.365 µM) against P. aeruginosa SR24, 0.032 µg/mL (≈ 0.0467 µM) against H. influenzae ATCC49766, 0.125 µg/mL (≈ 0.182 µM) against E. coli NIHJ JC-2 and 0.25 µg/mL (≈ 0.365 µM) in the assay with S. pneumoniae Type I.

Regarding `C[C@H](N)CCn1c(N)nc2c1ccc[n+]2CC1=C(C(=O)[O-])N2C(=O)C(NC(=O)/C(=N\OC(C)(C)C(=O)O)c3nsc(N)n3)C2SC1` (stereo partly shown) [Example 19], the MIC with P. aeruginosa SR24 was determined as 0.5 µg/mL (≈ 0.742 µM); in the assay on H. influenzae ATCC49766 it was 0.032 µg/mL (≈ 0.0475 µM); in the assay with E. coli NIHJ JC-2 it was 0.125 µg/mL (≈ 0.186 µM); in the assay on S. pneumoniae Type I, 0.125 µg/mL (≈ 0.186 µM).
